From patent US11299487B2, “Compounds and compositions as modulators of TLR signaling” (Neuropore Therapies, Inc., priority 2019, dated 2022)
Like-named read-outs stand apart in the source and are kept apart here.

Key:
Assay type in all cases: cell-based
[1] = target: T1, human TLR2 (Homo sapiens, UniProt O60603); experiment: HEK-Blue hTLR2 antagonism assay (SEAP reporter) with agonist Pam2CSK4 (TLR2/6 agonist); settings: HEK-Blue hTLR2 cells, ~3×EC50 Pam2CSK4, 18 h, SEAP OD 655 nm, 8-point dilutions
T1 construct: host or cells: HEK-Blue hTLR2 (HEK-293)

[2] = target: T1, human TLR2; experiment: HEK-Blue hTLR2 antagonism assay (SEAP reporter) with agonist Pam3CSK4 (TLR1/2 agonist); settings: HEK-Blue hTLR2 cells, ~3×EC50 Pam3CSK4, 18 h, SEAP OD 655 nm, 8-point dilutions
[3] = target: T2, human TLR9 (Homo sapiens, UniProt Q9NR96); experiment: HEK-Blue hTLR9 assay (SEAP reporter) with agonist ODN 2006; settings: HEK-Blue hTLR9 cells, ~3×EC50 ODN 2006, 18 h, exact values 8-point dilutions, approximate (~ or <) 4-point dilutions, read-out: ~IC50 (μM) with ODN2006
T2 construct: host or cells: HEK-Blue hTLR9 (HEK-293)
T2 sequence (Q9NR96 26-1032): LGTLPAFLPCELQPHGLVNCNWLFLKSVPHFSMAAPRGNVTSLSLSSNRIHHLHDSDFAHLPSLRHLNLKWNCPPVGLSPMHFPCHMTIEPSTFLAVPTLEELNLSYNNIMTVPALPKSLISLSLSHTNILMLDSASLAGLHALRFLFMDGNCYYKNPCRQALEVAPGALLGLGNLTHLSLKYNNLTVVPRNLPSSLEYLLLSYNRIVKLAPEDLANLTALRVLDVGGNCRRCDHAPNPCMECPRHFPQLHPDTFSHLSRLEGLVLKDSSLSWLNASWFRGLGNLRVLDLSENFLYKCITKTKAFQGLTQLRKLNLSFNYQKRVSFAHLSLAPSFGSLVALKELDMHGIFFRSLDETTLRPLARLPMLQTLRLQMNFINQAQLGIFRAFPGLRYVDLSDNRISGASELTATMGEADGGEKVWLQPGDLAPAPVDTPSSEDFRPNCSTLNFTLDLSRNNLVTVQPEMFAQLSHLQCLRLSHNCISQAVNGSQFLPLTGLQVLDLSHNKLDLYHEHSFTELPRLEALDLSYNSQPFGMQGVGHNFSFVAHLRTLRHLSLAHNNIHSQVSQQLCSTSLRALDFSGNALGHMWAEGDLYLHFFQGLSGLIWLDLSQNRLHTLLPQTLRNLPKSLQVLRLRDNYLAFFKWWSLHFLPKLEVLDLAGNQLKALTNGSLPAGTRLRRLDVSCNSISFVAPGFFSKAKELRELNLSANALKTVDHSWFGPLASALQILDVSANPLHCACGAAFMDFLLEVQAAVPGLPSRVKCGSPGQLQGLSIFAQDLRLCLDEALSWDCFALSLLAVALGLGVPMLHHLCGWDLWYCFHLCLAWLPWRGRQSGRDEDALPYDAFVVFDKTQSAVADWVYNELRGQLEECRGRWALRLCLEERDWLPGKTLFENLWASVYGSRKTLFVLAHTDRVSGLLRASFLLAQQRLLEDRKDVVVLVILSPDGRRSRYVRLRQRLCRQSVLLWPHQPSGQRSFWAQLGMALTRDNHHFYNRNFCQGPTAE
Description: Synthetic ODNs (ODN 2006 (ODN7909), class B CpG oligonucleotide, TLR9 agonist) was obtained from InvivoGen and was dissolved in endotoxin-free water to a concentration 500 μM, vortexed until complete solubilization, and stored in aliquots at −20° C. Prior to addition to cells, an aliquot of the dissolved ligand was vortexed shortly and then was diluted in medium to 50 μM. The EC50 of the agonist for each assay run was determined by using 3-fold dilutions from the starting concentration 10 μM.
Test compounds were solubilized fresh to 10-20 mM stocks in DMSO and sonicated for 5-10 minutes in a water bath sonicator. Serial dilutions were prepared in DMSO, and then diluted in medium. The final concentration of DMSO used in the assay was 1%.
HEK-Blue hTLR9 reporter cells (InvivoGen) are HEK-293 cells stably expressing both the human TLR9 gene and a secreted embryonic alkaline phosphatase (SEAP) reporter construct downstream of NFκB promotor sites. HEK-Blue hTLR9 cells were cultured according to manufacturer's protocol using Dulbecco's Modified Eagle Medium (DMEM; Gibco) containing 1× GlutaMax (Gibco), 10% heat-inactivated Fetal Bovine Serum (Gibco), Pen-Strep (50 U/mL penicillin, 50 μg/mL streptomycin, Gibco), 100 μg/mL Normocin (InvivoGen), and the selective antibiotics, 10 μg/mL Blasticidin (InvivoGen), and 100 μg/mL Zeocin (InvivoGen). Quanti-Blue reagent (InvivoGen) for detection and quantification of secreted alkaline phosphatase was dissolved in 100 mL of endotoxin-free water, warmed to 37° C. for 30 minutes and then filtered using a 0.2 μm membrane.
On day 1, 50 μL of each test compound dilution in duplicates or a vehicle control was added to each well of a 96-well plate followed by addition of 150 μL of HEK-Blue hTLR9 cell suspension (1×10^5 cells/well) and incubated at 37° C./5% CO2 for 2 h. Next, 50 μL of an approximate 3×EC50 concentration of TLR9 agonist, ODN 2006, was added to the wells containing test compounds or the vehicle control. The plates were then incubated at 37° C./5% CO2 for 18 h. For each assay run, vehicle-treated HEK-Blue hTLR9 cells were treated with serial dilutions of agonist to determine EC50 values for the respective run.
On day 2, secreted alkaline phosphatase (SEAP) activity was detected in cell culture supernatants. In brief, 30 μL was collected from each well and transferred to a 96-well plate. Next, 200 μL of Quanti-Blue detection reagent was added to each well. Plates were incubated at 37° C. for 60 min. and SEAP activity was assessed by spectrophotometer OD reading at 655 nm. Table A and Table B show the activities of the compounds tested in HEK-Blue hTLR9 cells against ODN 2006. The activities of the compounds against ODN 2006 are presented as IC50 values which were defined as concentrations of the compounds where percent inhibition of the signal induced by agonist is equal to 50. Exact IC50 values were calculated based on 8-point dilutions for each compound. Approximate IC50 values (˜ or <) were calculated based on 4-point dilutions for each compound.

T1 sequence (O60603 21-784): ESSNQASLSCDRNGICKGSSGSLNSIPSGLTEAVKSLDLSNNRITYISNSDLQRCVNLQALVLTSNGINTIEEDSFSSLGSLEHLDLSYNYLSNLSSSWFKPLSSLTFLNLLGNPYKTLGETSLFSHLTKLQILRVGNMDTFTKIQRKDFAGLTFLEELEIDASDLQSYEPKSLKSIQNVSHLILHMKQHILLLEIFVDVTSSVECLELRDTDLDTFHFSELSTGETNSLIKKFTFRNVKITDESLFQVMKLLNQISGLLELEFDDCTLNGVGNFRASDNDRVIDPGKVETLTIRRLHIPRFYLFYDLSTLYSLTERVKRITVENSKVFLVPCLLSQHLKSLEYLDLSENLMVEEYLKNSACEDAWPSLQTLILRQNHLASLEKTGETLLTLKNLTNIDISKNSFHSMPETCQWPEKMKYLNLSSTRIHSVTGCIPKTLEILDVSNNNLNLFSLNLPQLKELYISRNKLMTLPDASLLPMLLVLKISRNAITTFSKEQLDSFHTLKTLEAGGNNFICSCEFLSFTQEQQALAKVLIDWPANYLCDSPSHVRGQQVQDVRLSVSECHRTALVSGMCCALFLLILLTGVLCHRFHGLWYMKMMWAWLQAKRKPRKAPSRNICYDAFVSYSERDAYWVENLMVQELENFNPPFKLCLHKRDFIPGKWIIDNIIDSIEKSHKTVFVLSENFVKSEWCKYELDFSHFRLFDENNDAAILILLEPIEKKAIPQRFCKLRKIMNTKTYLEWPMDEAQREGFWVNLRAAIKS

Row | IC50 ([1]; Table A) | IC50 ([2]; Table A) | IC50 ([3]; Table A) | IC50 ([1]; Table B) | IC50 ([2]; Table B) | IC50 ([3]; Table B) | SMILES
1 | 1 µM | 0.3 µM | 0.3 µM |  |  |  | O=Cc1cc(-c2csc(-c3ccc(N4CCCC4)cc3)n2)cc(F)c1O [Compound A57, 3-fluoro-2-hydroxy-5-(2-(4-(pyrrolidin-1-yl)phenyl)thiazol-4-yl)benzaldehyde]
2 | 3.2 µM | 1 µM | < 1.2 µM |  |  |  | O=Cc1cc(-c2nsc(-c3ccc(N4CCCC4)cc3)n2)cc(F)c1O [Compound A61, 3-fluoro-2-hydroxy-5-(5-(4-(pyrrolidin-1-yl)phenyl)-1,2,4-thiadiazol-3-yl)benzaldehyde]
3 | 0.7 µM | 0.4 µM | 0.2 µM |  |  |  | O=Cc1cc(-c2nc(-c3ccc(N4CCCC4)cc3)ns2)cc(F)c1O [Compound A62, 3-fluoro-2-hydroxy-5-(3-(4-(pyrrolidin-1-yl)phenyl)-1,2,4-thiadiazol-5-yl)benzaldehyde]
4 | 2.1 µM | 1.3 µM | ~3 µM |  |  |  | O=Cc1cc(-c2cnc(-c3ccccc3)o2)cc(F)c1O [Compound A88, 3-fluoro-2-hydroxy-5-(2-phenyloxazol-5-yl)benzaldehyde]
5 | 3.8 µM | 2.1 µM | < 1.2 µM |  |  |  | O=Cc1cc(-c2cnc(-c3ccccc3)s2)cc(F)c1O [Compound A91, 3-fluoro-2-hydroxy-5-(2-phenylthiazol-5-yl)benzaldehyde]
6 | 4.8 µM | 2.1 µM | < 1.2 µM |  |  |  | O=Cc1cc(-c2nc(-c3ccccc3)cs2)cc(F)c1O [Compound A93, 3-fluoro-2-hydroxy-5-(4-phenylthiazol-2-yl)benzaldehyde]
7 | 14.8 µM | 9.2 µM | < 1.2 µM |  |  |  | O=Cc1cc(-c2nnc(-c3ccccc3)s2)cc(F)c1O [Compound A94, 3-fluoro-2-hydroxy-5-(5-phenyl-1,3,4-thiadiazol-2-yl)benzaldehyde]
8 | 3 µM | 2.3 µM | ~1.4 µM |  |  |  | O=Cc1cc(-c2nc(-c3ccccc3)ns2)cc(F)c1O [Compound A95, 3-fluoro-2-hydroxy-5-(3-phenyl-1,2,4-thiadiazol-5-yl)benzaldehyde]
9 | 12.1 µM | 8.8 µM | ~6.3 µM |  |  |  | O=Cc1cc(-c2nc(-c3ccccc3)n[nH]2)cc(F)c1O [Compound A96, 3-fluoro-2-hydroxy-5-(3-phenyl-1H-1,2,4-triazol-5-yl)benzaldehyde]
10 |  |  |  | 1.1 µM | 0.7 µM | < 1.2 µM | O=Cc1cc(C#Cc2ccc(N3CCCC3)cc2)cc(F)c1O [Compound B1, 3-fluoro-2-hydroxy-5-((4-(pyrrolidin-1-yl)phenyl)ethynyl)benzaldehyde]
11 |  |  |  | 3.7 µM | 2.2 µM | < 1.2 µM | O=Cc1cc(C#Cc2ccc(N3CCOCC3)cc2)cc(F)c1O [Compound B3, 3-fluoro-2-hydroxy-5-((4-morpholinophenyl)ethynyl)benzaldehyde]
12 |  |  |  | 6.3 µM | 2.7 µM | ~1.5 µM | O=Cc1c(O)cc(C#Cc2ccc(N3CCCC3)cc2)cc1F [Compound B4, 2-fluoro-6-hydroxy-4-((4-(pyrrolidin-1-yl)phenyl)ethynyl)benzaldehyde]
13 |  |  |  | 35.7 µM | 20.8 µM | > 33 µM | COc1cc(C#Cc2ccc(N3CCCC3)cc2)cc(O)c1C=O [Compound B7, 2-hydroxy-6-methoxy-4-((4-(pyrrolidin-1-yl)phenyl)ethynyl)benzaldehyde]
14 |  |  |  | 12 µM | 10.6 µM | < 1.2 µM | O=Cc1cc(C(=O)Nc2ccccc2)cc(F)c1O [Compound B11, 3-fluoro-5-formyl-4-hydroxy-N-phenylbenzamide]
15 |  |  |  | 2.7 µM | 2 µM | 0.7 µM | O=Cc1cc(C(=O)Nc2ccc(N3CCCC3)cc2)cc(F)c1O [Compound B12, 3-fluoro-5-formyl-4-hydroxy-N-(4-(pyrrolidin-1-yl)phenyl)benzamide]
16 |  |  |  | 1.3 µM | 1.5 µM | > 33 µM | O=Cc1cc(C(=O)Nc2ccc(C(F)(F)F)c(Cl)c2)cc(F)c1O [Compound B14, N-(3-Chloro-4-(trifluoromethyl)phenyl)-3-fluoro-5-formyl-4-hydroxybenzamide]
17 |  |  |  | 12.7 µM | 6.6 µM | ~2.9 µM | O=Cc1cc(S(=O)(=O)Nc2ccc(N3CCCC3)cc2)cc(F)c1O [Compound B17, 3-fluoro-5-formyl-4-hydroxy-N-(4-(pyrrolidin-1-yl)phenyl)benzenesulfonamide]
18 |  |  |  | 8.7 µM | 3.7 µM | < 1.2 µM | O=Cc1cc(NC(=O)Nc2ccc(N3CCCC3)cc2)cc(F)c1O [Compound B65, 1-(3-fluoro-5-formyl-4-hydroxyphenyl)-3-(4-(pyrrolidin-1-yl)phenyl)urea]
19 |  |  |  | 3.3 µM | 1.2 µM | < 1.2 µM | O=Cc1cc(C(=O)Nc2ccc(N3CCC(F)(F)C3)cc2)cc(F)c1O [Compound B67, N-(4-(3,3-difluoropyrrolidin-1-yl)phenyl)-3-fluoro-5-formyl-4-hydroxybenzamide]
20 |  |  |  | 3.5 µM | 1 µM | < 1.2 µM | O=Cc1cc(C(=O)Nc2ccc(N3CCC(F)(F)CC3)cc2)cc(F)c1O [Compound B68, N-(4-(4,4-difluoropiperidin-1-yl)phenyl)-3-fluoro-5-formyl-4-hydroxybenzamide]
21 |  |  |  | 2.6 µM | 1.7 µM | ~2.5 µM | O=Cc1cc(C(=O)Nc2cccc(N3CCCC3)c2)cc(F)c1O [Compound B71, 3-fluoro-5-formyl-4-hydroxy-N-(3-(pyrrolidin-1-yl)phenyl)benzamide]
